Test results: patent US20240368203A1, “DEGRADATION OF (EGFR) BY CONJUGATION OF EGFR INHIBITORS WITH E3 LIGASE LIGAND AND METHODS OF USE” (BeiGene, Ltd., priority 2022, published 2024)

What was measured:
[1] = target: T1, EGFR-L858R/T790M/C797S (Homo sapiens, UniProt P00533, C797S/L858R/T790M); assay: EGFR degradation HTRF assay in H1975-clone #25 cells; assay type: cell-based; details: 16 h treatment; for DC50: H1975-clone #25 (L858R/T790M/C797S) cells, IC50 (DC50), read-out: DC50(nM) H1975 # 25-LTC; for Dmax: NCI-H1975, H1975-clone #25 (L858R/T790M/C797S) cells, maximum percentage of inhibition (degradation), read-out: Dmax (%) H1975 # 25-LTC
T1 construct: expressed in transfected cells; host or cells: H1975-clone #25 (lentiviral over-expression, endogenous EGFR knocked out)
Summary of the method: (§1)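 H1975 clones with endogenous EGFR knocked out, homozygously expressing lentiviral L858R/T790M/C797S (#25) or Del19/T790M/C797S (#28), treated 16 h at 37° C with 8 doses from 10 uM, 5-fold, in 0.2% DMSO. EGFR in lysates measured by HTRF overnight; DC50 from four-parameter fit of % degradation.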

[2] = test system: EGFR-Del19/T790M/C797S; assay: EGFR degradation HTRF assay in H1975-clone #28 cells; assay type: cell-based; details: H1975-clone #28 (Del19/T790M/C797S) cells, 16 h treatment; for DC50: IC50 (DC50), read-out: DC50(nM) H1975 # 28 DTC; for Dmax (%) H1975 # 28 DTC: maximum percentage of inhibition (degradation)
Summary of the method: as §1

T1 sequence (P00533 25-1210 T790M/C797S/L858R): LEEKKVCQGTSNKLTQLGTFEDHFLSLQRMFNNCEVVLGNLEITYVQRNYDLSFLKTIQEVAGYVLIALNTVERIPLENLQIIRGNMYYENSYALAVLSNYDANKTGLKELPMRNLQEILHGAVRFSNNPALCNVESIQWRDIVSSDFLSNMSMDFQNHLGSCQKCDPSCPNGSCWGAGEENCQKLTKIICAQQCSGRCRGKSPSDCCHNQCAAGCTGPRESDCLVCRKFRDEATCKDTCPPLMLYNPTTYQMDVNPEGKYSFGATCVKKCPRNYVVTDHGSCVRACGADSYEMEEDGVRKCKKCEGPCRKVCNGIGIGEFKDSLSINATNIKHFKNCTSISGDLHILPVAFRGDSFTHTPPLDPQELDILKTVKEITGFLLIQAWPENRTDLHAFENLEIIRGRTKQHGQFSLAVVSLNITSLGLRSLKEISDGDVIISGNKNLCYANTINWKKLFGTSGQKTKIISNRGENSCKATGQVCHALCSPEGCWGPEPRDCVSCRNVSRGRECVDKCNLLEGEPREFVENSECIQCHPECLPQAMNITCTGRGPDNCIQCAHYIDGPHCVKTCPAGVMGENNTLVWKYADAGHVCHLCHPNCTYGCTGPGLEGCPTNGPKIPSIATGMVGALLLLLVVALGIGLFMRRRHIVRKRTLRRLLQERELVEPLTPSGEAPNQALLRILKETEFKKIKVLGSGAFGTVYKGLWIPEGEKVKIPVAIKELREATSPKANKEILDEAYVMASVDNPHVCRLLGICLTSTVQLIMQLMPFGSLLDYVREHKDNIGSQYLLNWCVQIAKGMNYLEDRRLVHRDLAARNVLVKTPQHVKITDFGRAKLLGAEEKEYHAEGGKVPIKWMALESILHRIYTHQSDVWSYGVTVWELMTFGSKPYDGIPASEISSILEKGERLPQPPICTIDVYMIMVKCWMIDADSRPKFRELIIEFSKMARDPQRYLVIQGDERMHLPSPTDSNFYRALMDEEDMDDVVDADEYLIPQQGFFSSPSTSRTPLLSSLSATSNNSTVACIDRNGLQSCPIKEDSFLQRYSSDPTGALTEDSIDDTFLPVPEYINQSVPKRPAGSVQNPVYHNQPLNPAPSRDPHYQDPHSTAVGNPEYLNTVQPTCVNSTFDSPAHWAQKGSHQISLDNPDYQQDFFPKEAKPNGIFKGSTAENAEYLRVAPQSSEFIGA

SMILES | DC50 [1] [nM] | Dmax [1] [%] | DC50 [2] [nM] | Dmax (%) H1975 # 28 DTC [2] [%]
CCc1cc(Nc2ncc(Cl)c(Nc3ccc4nc(C)c(F)cc4c3P(C)(C)=O)n2)c(OC)cc1N1CCC2(CC1)CCN(C1CCN(c3cc(F)c([C@H]4CCC(=O)NC4=O)c(F)c3)CC1)CC2 [Example 2, (R)-3-(4-(4-(9-(4-((5-chloro-4-((5-(dimethylphosphoryl)-3-fluoro-2-methylquinolin-6-yl)amino)pyrimidin-2-yl)amino)-2-ethyl-5-methoxyphenyl)-3,9-diazaspiro[5.5]undecan-3-yl)piperidin-1-yl)-2,6-difluorophenyl)piperidine-2,6-dione] | 3.4 | 92 | 3.5 | 89
CCc1cc(Nc2ncc(Br)c(Nc3ccc4nc(C)c(F)cc4c3P(C)(C)=O)n2)c(OC)cc1N1CCC(N2CC3(CN(c4cccc5c4n(C)c(=O)n5C4CCC(=O)NC4=O)C3)C2)CC1 (stereo not shown) [Example 26, 3-(4-(6-(1-(4-((5-bromo-4-((5-(dimethylphosphoryl)-3-fluoro-2-methylquinolin-6-yl)amino)pyrimidin-2-yl)amino)-2-ethyl-5-methoxyphenyl)piperidin-4-yl)-2,6-diazaspiro[3.3]heptan-2-yl)-3-methyl-2-oxo-2,3-dihydro-1H-benzo[d]imidazol-1-yl)piperidine-2,6-dione] | 0.7 | 80 | 1.4 | 75
CCc1cc(Nc2ncc(Br)c(Nc3ccc4nc(C)c(F)cc4c3P(C)(C)=O)n2)c(OC)cc1N1CCC(N2CC3(CCN(c4cc(F)c([C@H]5CCC(=O)NC5=O)c(F)c4)CC3)C2)CC1 (single isomer, unassigned) [Example 18] | 1.7 | 92 | 1.7 | 91
CCc1ncc2c(P(C)(C)=O)c(Nc3nc(Nc4cc(CC)c(N5CCC6(CC5)CCN(C5CCN(c7cc(F)c([C@H]8CCC(=O)NC8=O)c(F)c7)CC5)CC6)cc4OC)ncc3Br)ccc2n1 [Example 3, (R)-3-(4-(4-(9-(4-((5-bromo-4-((5-(dimethylphosphoryl)-2-ethylquinazolin-6-yl)amino)pyrimidin-2-yl)amino)-2-ethyl-5-methoxyphenyl)-3,9-diazaspiro[5.5]undecan-3-yl)piperidin-1-yl)-2,6-difluorophenyl)piperidine-2,6-dione] | 2.8 | 95 | 1.9 | 91
